From PubChem BioAssay (NCI)
In brackets after ≈: the same amount, converted by molar mass.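 Step 1: Grow cells in 96-well plates. Step 2: Expose to compound for 48 hours at 5 concentrations. Step 3: Interpolate endpoints linearly; if unreached, use highest concentration. Abbreviation: GI50, concentration required for 50% inhibition of growth. Definition used: TGI = concentration required for complete inhibition of growth.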

Legend:
Assay in all cases: growth of human tumour cells (NCI), 48 h
MDA-N = tested on: MDA-N
DLD-1 colon = tested on: DLD-1 colon
DMS 273 small cell lung = tested on: DMS 273 small cell lung
XF 498 CNS = tested on: XF 498 CNS
HOP-18 NSCLC = tested on: HOP-18 NSCLC
RXF-631 renal = tested on: RXF-631 renal
LXFL 529 NSCLC = tested on: LXFL 529 NSCLC

Row | SMILES | TGI (MDA-N) | TGI (DLD-1 colon) | TGI (DMS 273 small cell lung) | TGI (XF 498 CNS) | TGI (HOP-18 NSCLC) | TGI (RXF-631 renal) | TGI (LXFL 529 NSCLC) | GI50 (MDA-N)
1 | O=C1OC(OC/C(Br)=C(/Br)COC2OC(=O)C(Cl)=C2Cl)C(Cl)=C1Cl (configuration not stated) | 21.5 µM |  |  |  |  |  |  | 
2 | O=C1/C(=C\c2ccccc2)c2ccccc2N1/N=C\c1ccccc1 |  | > 100 µM | > 100 µM | > 100 µM | > 100 µM |  |  | 
3 | c1ccc2c(CN3CCC(C4CCN(Cc5cccc6ccccc56)CC4)CC3)cccc2c1 | 25.2 µM | 26.8 µM | 22.9 µM | 10.4 µM | > 100 µM | 35.5 µM | 21.8 µM | 
4 | O=S(=O)(N/N=C/c1ccc(Cl)cc1Cl)c1ccccc1 |  | > 100 µM | > 100 µM | > 100 µM | > 100 µM | > 100 µM | > 100 µM | 
5 | N#CC(C(=O)CCC(=O)Nc1ccc(Cl)c(Cl)c1)c1ccc(Cl)cc1 (configuration not stated) |  | > 100 µM | > 100 µM |  | > 100 µM | > 100 µM | > 100 µM | 
6 | COC1(Cc2ccccc2)C(=O)c2ccccc2N1C(C)=O (configuration not stated) |  | > 100 µM | > 100 µM | > 100 µM | > 100 µM | > 100 µM | > 100 µM | 
7 | COC(=O)C1=C(c2ccc(Cl)cc2)C(O)N=C(NN)N1 (configuration not stated) |  | > 100 µM |  | > 100 µM | > 100 µM | > 100 µM | > 100 µM | 
8 | Clc1ccc(/C=C/c2nc(Cl)c(-c3ccc(Cl)cc3)c(Cl)n2)cc1 | > 100 µM |  |  |  |  |  |  | 
9 | CCSC(=O)C1(C)OC2CCCCC2C1=O (configuration not stated) |  | > 100 µM | > 100 µM |  | > 100 µM |  | > 100 µM | 
10 | CCOC(=O)/C=C1\Oc2ccccc2C1(C)O (configuration not stated) |  | > 100 µM | > 100 µM |  | > 100 µM |  | > 100 µM | 
11 | Cc1ccc(Nc2nc(C)c(C(/C=C/c3ccc4c(c3)OCO4)=N/Nc3ccc([N+](=O)[O-])cc3[N+](=O)[O-])s2)c([N+](=O)[O-])c1 |  | > 100 µM | > 100 µM | 56.2 µM | 63.7 µM | > 100 µM | > 100 µM | 
12 | O=c1cc(-c2ccc(O)cc2)oc2cc(O)cc(O)c12 |  |  | 40.2 µM | 61.6 µM |  |  | 37.3 µM | 
13 | O=c1[nH]cnc2c1ncn2CCCCO |  | > 100 µM |  |  | > 100 µM |  | > 100 µM | 
14 | COc1ccc(OC)c(/C=N/N=C2\C(=O)Nc3c(Cl)cc(Cl)cc32)c1 | 40.9 µM |  |  |  |  |  |  | 
15 | CC1=C(C(=O)Nc2ccccc2C)C(c2ccccc2C)C(C(=O)Nc2ccccc2C)=C(C)N1 |  | 33.4 µM |  | 39.2 µM | 37 µM | > 100 µM | > 10 µM | 
16 | COC1OC(C(C)O)C2OC(C)(C)OC12 (configuration not stated) | > 100 µM |  |  |  |  |  |  | 
17 | Cn1c2ccccc2c2[nH]c3ccccc3c(=O)c21 | > 100 µM |  |  |  |  |  |  | 
18 | COc1ccc(C=C2C(=O)NC(=O)NC2=O)cc1OCc1ccccc1 | 32.7 µg/mL |  |  |  |  |  |  | 14.8 µg/mL (≈ 41.9 µM)
19 | NS(=O)(=O)c1ccc(NC(=O)c2cccc3c(Nc4ccc(S(N)(=O)=O)cc4)c4ccccc4nc23)cc1 |  | > 100 µM | 5.15 µM | 74.6 µM | > 100 µM | 11.1 µM | 85.9 µM | 
20 | CC1CC(=O)c2c(ccc3c2C(=O)c2cccc(O)c2C3=O)C1 (configuration not stated) |  | 9.56 µM | 18.5 µM | 25.1 µM | 21.2 µM | 29.8 µM | 14.1 µM | 
21 | CCOC(=O)c1cn(CC)c2cc3c(cc2c1=O)SCS3 |  | > 100 µM | > 100 µM |  | > 100 µM | > 100 µM | > 100 µM | 
22 | CC1=NN(c2ccccc2)C(=O)C1N=Nc1ccc(S(N)(=O)=O)cc1 (configuration not stated) | > 100 µM |  |  |  |  |  |  | 
23 | CC(=O)O[C@H]1CC[C@@]2(C)C(=C/C(=N\[N+](=O)[O-])[C@H]3C4CCC([C@H](C)CCCC(C)C)[C@@]4(C)CCC32)C1 (some centres not stated) |  | > 100 µM | > 100 µM | > 100 µM |  |  | > 100 µM | 
